Test results taken from patent US12397016B2, “Sulfated oligosaccharides having anti-inflammatory activity” (The University of North Carolina at Chapel Hill, priority 2017, dated 2025).
Entries after “also recorded” stand apart in the source; their conditions may differ.

Test system: APAP-induced liver injury in mice
Test: Delayed treatment 6 h post-APAP, comparison with NAC
Format: in vivo, mouse
Conditions: read at 24 h, FIG. 5D
Protocol: To compare the 18-mer's effectiveness to N-acetyl cysteine (NAC), 300 mg kg^−1 NAC at pH 7.5 in sterile saline was injected intraperitoneal 30 min post-APAP. In a separate experiment, 300 mg kg^−1 NAC or 0.34 mg/kg 18-mer were administered 6 h post-APAP, then at 18 h post-APAP, 0.17 mg kg^−1 18-mer was administered to the 18-mer treated group. At 24 h post-APAP, mice were euthanized and blood and liver tissue were collected.
Plasma ALT was measured using the ALT Infinity reagent (Thermo Fisher Scientific) following the manufacturer's instructions. Plasma TNF-α was measured using Mouse TNF-α DuoSet Kit (R&D Systems, Minneapolis, Minnesota, United States of America) according to the manufacturer's instructions. Plasma HMGB1 levels were determined using HMGB1 ELISA Kit (Tecan US of Tecan Trading AG, Mannedorf, Switzerland) according to the manufacturer's instructions. Plasma syndecan-1 levels were determined using Mouse Syndecan-1 ELISA (CellSciences) according to manufacturer's instructions. Hepatic GSH levels were determined using Glutathione Assay Kit (Cayman Chemicals, Ann Arbor, Michigan, United States of America) according to the manufacturer's instructions.

Structure (SMILES): CC(=O)N[C@@H](CS)C(=O)O [NAC, N-acetyl-cysteine]
- protective effect (ALT) when administered six hours post-APAP: loses its protective effect; also recorded: loses effectiveness
